Converted amounts (≈) assume the structure as drawn. Read-outs that look alike come from different tables or passages of the source.
Columns and labels:
Format in all cases: cell-based
[1] = tested on: wild-type E. coli A-1261; experiment: MIC against wild-type E. coli A-1261 with or without alkaline phosphatase or esterase; details: Escherichia coli
Procedure: Minimal Inhibitory Concentrations (MICs; mg/L) were determined in cation-adjusted Mueller-Hinton Broth by a microdilution method following the description given in “Methods for Dilution Antimicrobial Susceptibility Tests for Bacteria that Grow Aerobically”, Approved standard, 7th ed., Clinical and Laboratory Standards Institute (CLSI) Document M7-A7, Wayne, Pa., U.S.A. (2006). The compound of Example 31 was tested against wild-type E. coli A-1261 in the absence of alkaline phosphatase, in the presence of an alkaline phosphatase and in the presence of an esterase. The corresponding antibacterial test results are given in Table 2 hereafter (MICs in mg/L).

[2] = tested on: P. aeruginosa ATCC27853; experiment: Bacterial growth minimal inhibitory concentration, microdilution in cation-adjusted Mueller-Hinton Broth (CLSI M7-A7); details: quinolone-sensitive strain; for MIC: Pseudomonas aeruginosa, ATCC27853, read-out: MIC for P. aeruginosa ATCC27853
Procedure: (§1) Minimal Inhibitory Concentrations (MICs; mg/L) were determined in cation-adjusted Mueller-Hinton Broth by a microdilution method following the description given in “Methods for Dilution Antimicrobial Susceptibility Tests for Bacteria that Grow Aerobically”, Approved standard, 7th ed., Clinical and Laboratory Standards Institute (CLSI) Document M7-A7, Wayne, Pa., U.S.A. (2006).
(§2) All Example compounds were tested against several Gram-positive and Gram-negative bacteria. […] K. pneumoniae A-651 is a multiply-resistant strain (in particular quinolone-resistant), while E. coli ATCC25922 and P. aeruginosa ATCC27853 are quinolone-sensitive strains.

[3] = tested on: K. pneumoniae A-651; experiment: as above; details: multiply-resistant strain (in particular quinolone-resistant); for MIC: Klebsiella pneumoniae, A651, read-out: MIC for K. Pneumoniae A-651
Procedure: as §1, §2

[4] = tested on: E. coli ATCC25922; experiment: as above; details: quinolone-sensitive strain; for MIC: Escherichia coli, ATCC25922, read-out: MIC for E. coli ATCC25922
Procedure: as §1, §2

| MIC [2] [µg/mL] | MIC [3] [µg/mL] | MIC [4] [µg/mL] | SMILES | further results |
| --- | --- | --- | --- | --- |
|  |  |  | C[C@@](CCn1cnc2cc(C#CC#CC3(COP(=O)(O)O)CC3)ccc2c1=O)(C(=O)NO)S(C)(=O)=O [Example 31, (R)-(1-((3-(4-(hydroxyamino)-3-methyl-3-(methylsulfonyl)-4-oxobutyl)-4-oxo-3,4-dihydroquinazolin-7-yl)buta-1,3-diyn-1-yl)cyclopropyl)methyl dihydrogen phosphate] | MIC ([1]; alkaline phosphatase 2 i.U./mL, read-out: MIC for E. coli A-1261 In the presence of an alkaline phosphatase (2 i.U./mL)): 0.5 µg/mL; MIC ([1]; esterase 10 i.U./mL, read-out: MIC for E. coli A-1261 In the presence of an esterase (10 i.U./mL)): > 16 µg/mL; MIC ([1]; no alkaline phosphatase or esterase, read-out: MIC for E. coli A-1261 In the absence of alkaline phosphatase or esterase): > 16 µg/mL |
| 16 | 4 | 2 | CC(CCn1cnc2cc(-c3ccc(OCCN4CCOCC4)cc3F)ccc2c1=O)(C(=O)NO)S(C)(=O)=O.O=CO (racemic) [RE3, (RS)-4-(7-(2-fluoro-4-(2-morpholinoethoxy)phenyl)-4-oxoquinazolin-3(4H)-yl)-N-hydroxy-2-methyl-2-(methylsulfonyl)butanamide formate] |  |
| 1 | 0.5 | 0.25 | C[C@@](CCn1cnc2cc(C#CC#CC3(N)CC3)ccc2c1=O)(C(=O)NO)S(C)(=O)=O.O=CO [Example 25, (R)-4-(7-((1-aminocyclopropyl)buta-1,3-diyn-1-yl)-4-oxoquinazolin-3(4H)-yl)-N-hydroxy-2-methyl-2-(methylsulfonyl)butanamide formate] |  |
| 2 | 0.5 | 0.25 | CN(C)CC#CC#Cc1cc2ncn(CC[C@](C)(C(=O)NO)S(C)(=O)=O)c(=O)c2cc1F.O=CO [Example 32, (R)-4-(7-(5-(dimethylamino)penta-1,3-diyn-1-yl)-6-fluoro-4-oxoquinazolin-3(4H)-yl)-N-hydroxy-2-methyl-2-(methylsulfonyl)butanamide formate] |  |
|  |  |  | CN(C)CC(=O)OCC1(c2ccc(C#Cc3ccc4c(=O)n(CC[C@](C)(C(=O)NO)S(C)(=O)=O)cnc4c3)cc2)CC1.Cl [Example 22] | MIC for P. aeruginosa ATCC27853 [2]: 16 µg/mL; MIC for K. Pneumoniae A-651 [3]: 4 µg/mL; MIC for E. coli ATCC25922 [4]: 0.5 µg/mL |
| 16 (≈ 36.9 µM) | ≤ 0.063 | 0.25 (≈ 0.577 µM) | CC(CCn1cnc2cc(-c3ccccc3)c(F)cc2c1=O)(C(=O)NO)S(C)(=O)=O (racemic) [RE9, (RS)-4-(6-fluoro-4-oxo-7-phenylquinazolin-3(4H)-yl)-N-hydroxy-2-methyl-2-(methylsulfonyl)butanamide] |  |
| 0.5 (≈ 1.05 µM) | 0.5 (≈ 1.05 µM) | 0.25 (≈ 0.526 µM) | C[C@@](CCn1cnc2cc(C#CC#C[C@H]3C[C@]3(F)CO)ccc2c1=O)(C(=O)NO)S(C)(=O)=O (relative stereo) [Example 33, (R)-4-(7-(((1R*,2R*)-2-fluoro-2-(hydroxymethyl)cyclopropyl)buta-1,3-diyn-1-yl)-4-oxoquinazolin-3(4H)-yl)-N-hydroxy-2-methyl-2-(methylsulfonyl)butanamide] |  |
| 16 (≈ 32 µM) | 0.5 (≈ 1 µM) | 0.25 (≈ 0.5 µM) | C[C@@](CCn1cnc2cc(C#Cc3ccc(OCCO)cc3)ccc2c1=O)(C(=O)NO)S(C)(=O)=O [Example 14, (R)-N-hydroxy-4-(7-((4-(2-hydroxyethoxy)phenyl)ethynyl)-4-oxoquinazolin-3(4H)-yl)-2-methyl-2-(methylsulfonyl)butanamide] |  |
| 8 | 2 | 1 | CC(CCn1cnc2cc(-c3ccc(OCCCN4CCOCC4)cc3)ccc2c1=O)(C(=O)NO)S(C)(=O)=O.O=CO (racemic) [RE2, (RS)-N-hydroxy-2-methyl-2-(methylsulfonyl)-4-(7-(4-(3-morpholinopropoxy)phenyl)-4-oxoquinazolin-3(4H)-yl)butanamide formate] |  |
| 8 | 8 | 8 | C[C@@](CCn1cnc2cc(C#CC#C[C@@H]3C[C@H]3CN)c(F)cc2c1=O)(C(=O)NO)S(C)(=O)=O.Cl [Example 28, (R)-4-(7-(((1R,2R)-2-(aminomethyl)cyclopropyl)buta-1,3-diyn-1-yl)-6-fluoro-4-oxoquinazolin-3(4H)-yl)-N-hydroxy-2-methyl-2-(methylsulfonyl)butanamide hydrochloride] |  |
| 1 (≈ 2.1 µM) | 0.5 (≈ 1.05 µM) | 0.25 (≈ 0.526 µM) | C[C@@](CCn1cnc2cc(C#CC#C[C@@]3(F)C[C@@H]3CO)ccc2c1=O)(C(=O)NO)S(C)(=O)=O (relative stereo) [Example 30, (R)-4-(7-(((1R*,2R*)-1-fluoro-2-(hydroxymethyl)cyclopropyl)buta-1,3-diyn-1-yl)-4-oxoquinazolin-3(4H)-yl)-N-hydroxy-2-methyl-2-(methylsulfonyl)butanamide] |  |
|  |  |  | C[C@@](CCn1cnc2cc(C#CC#C[C@@H]3C[C@@H](O)[C@@H](O)C3)ccc2c1=O)(C(=O)NO)S(C)(=O)=O [Example 15, (R)-4-(7-(((1s,3R,4S)-3,4-dihydroxycyclopentyl)buta-1,3-diyn-1-yl)-4-oxoquinazolin-3(4H)-yl)-N-hydroxy-2-methyl-2-(methylsulfonyl)butanamide] | MIC for P. aeruginosa ATCC27853 [2]: 2 µg/mL; MIC for K. Pneumoniae A-651 [3]: 1 µg/mL; MIC for E. coli ATCC25922 [4]: 1 µg/mL |
| 16 (≈ 34.1 µM) | 1 (≈ 2.13 µM) | 0.25 (≈ 0.532 µM) | CC(CCn1cnc2cc(C#Cc3ccc(CO)cc3)ccc2c1=O)(C(=O)NO)S(C)(=O)=O (racemic) [RE10, (RS)-N-hydroxy-4-(7-((4-(hydroxymethyl)phenyl)ethynyl)-4-oxoquinazolin-3(4H)-yl)-2-methyl-2-(methylsulfonyl)butanamide] |  |
